Data as given in US9956319B2, “Compositions useful as antibiofilm or antimicrobial agents and methods using same” (BAYLOR COLLEGE OF MEDICINE, priority 2012, dated 2018).

What was measured:
Assay in all cases: Zones of inhibition of impregnated catheter segments, modified Kirby-Bauer method
Pseudomonas aeruginosa = type: cell-based; settings: Pseudomonas aeruginosa; for zone of inhibition at 100000 µg/mL: Pseudomonas aeroginosa, catheter impregnated with 100 mg/ml of each agent
Method: (§1) To evaluate the antimicrobial activity of central venous catheters treated with α-lipoic acid or its combination with gentamicin, segments of 7 French triple lumen polyurethane central venous catheters were impregnated with α-lipoic acid, gentamicin, or the combination of lipoic acid and gentamicin using the same patented method described in Example 1 with 50 mg/ml of each agent (for the final solution volume). After the impregnation process and drying, zones of inhibition were performed on one-centimeter segments according to a modified Kirby-Bauer method against MSSE, MRSE, MRSA, K. pneumoniae, E. coli, P. mirabilis, Pseudomonas aeruginosa, and Candida albicans. Each segment was half embedded in the center of a Muller-Hinton agar plate that had been previously inoculated with an individual organism. Prior to placing the catheter segments in agar, each organism was grown for 18 hours in TSB to a concentration of 0.5 McFarland (10^8 cfu/ml). A cotton swab was placed in the suspension and streaked across the surface of the Muller-Hinton agar plate to cover the entire plate. All plates were placed in a 37° C. incubator for 24 hours. Zones were measured in mm after the incubation period (Table 2).
(§2) To evaluate the antimicrobial activity of central venous catheters treated with α-lipoic acid or its combination with doxycycline, segments of 7 French triple lumen polyurethane central venous catheters were impregnated with doxycycline or the combinations of α-lipoic acid and doxycycline using the same patented method described in Example 1 (U.S. Pat. No. 6,589,591) with 50 mg/ml of each agent (for the final solution volume). After the impregnation process and drying, zones of inhibition were performed on one-centimeter segments according to a modified Kirby-Bauer method against MSSE, MRSE, MRSA, K. pneumoniae, E. coli, P. aeruginosa, P. mirabilis, and C. albicans as described in Example 2. Zones of inhibition were measured in mm after the incubation period (Table 3).
(§3) To evaluate the antimicrobial activity of central venous catheters treated with lipoamide or its combination with levofloxacin, segments of 7 French triple lumen polyurethane central venous catheters were impregnated with levofloxacin or the combinations of lipoamide and levofloxacin using the same patented method described in Example 1 (U.S. Pat. No. 6,589,591) with 100 mg/ml (final solution volume) of each agent. After the impregnation process and drying, zones of inhibition were performed on one-centimeter segments according to a modified Kirby-Bauer method against MSSE, MRSE, MRSA, vancomycin-resistant Enterococcus (VRE), K. pneumoniae, E. coli, P. aeruginosa, P. mirabilis, and C. albicans as described in Example 2. Zones of inhibition were measured in mm after the incubation period (Table 4).
as §3, with “doxycycline,” for “levofloxacin,”, “doxycycline” for “levofloxacin”, “5).” for “4).”
(§4) To evaluate the antimicrobial activity of central venous catheters treated with dihydrolipoic acid, segments of 7 French triple lumen polyurethane central venous catheters were impregnated with dihydrolipoic acid using the same patented method described in Example 1 (U.S. Pat. No. 6,589,591) with 25 mg/ml (final solution volume) of the agent. […]

Klebsiella pneumoniae II = type: cell-based; settings: for zone of inhibition at 100000 µg/mL: Klebsiella pneumoniae II, catheter impregnated with 100 mg/ml of each agent
Method: as §1, §2, §3
as §3, with “doxycycline,” for “levofloxacin,”, “doxycycline” for “levofloxacin”, “5).” for “4).”
as §4

Candida albicans = type: cell-based; settings: for zone of inhibition at 100000 µg/mL: catheter impregnated with 100 mg/ml of each agent
Method: as §1, §2, §3
as §3, with “doxycycline,” for “levofloxacin,”, “doxycycline” for “levofloxacin”, “5).” for “4).”
as §4

Proteus mirabilis = type: cell-based; settings: for zone of inhibition at 100000 µg/mL: catheter impregnated with 100 mg/ml of each agent
Method: as §1, §2, §3
as §3, with “doxycycline,” for “levofloxacin,”, “doxycycline” for “levofloxacin”, “5).” for “4).”
as §4

Klebsiella pneumoniae I = type: cell-based; settings: for zone of inhibition at 100000 µg/mL: catheter impregnated with 100 mg/ml of each agent
Method: as §1, §2, §3
as §3, with “doxycycline,” for “levofloxacin,”, “doxycycline” for “levofloxacin”, “5).” for “4).”
as §4

Escherichia coli = type: cell-based; settings: for zone of inhibition at 100000 µg/mL: catheter impregnated with 100 mg/ml of each agent
Method: as §1, §2, §3
as §3, with “doxycycline,” for “levofloxacin,”, “doxycycline” for “levofloxacin”, “5).” for “4).”
as §4

MRSE = type: cell-based, Staphylococcus epidermidis; settings: for zone of inhibition at 100000 µg/mL: catheter impregnated with 100 mg/ml of each agent
Method: as §1, §2, §3
as §3, with “doxycycline,” for “levofloxacin,”, “doxycycline” for “levofloxacin”, “5).” for “4).”
as §4

MSSE = type: cell-based, Staphylococcus epidermidis; settings: for zone of inhibition at 100000 µg/mL: catheter impregnated with 100 mg/ml of each agent
Method: as §1, §2, §3
as §3, with “doxycycline,” for “levofloxacin,”, “doxycycline” for “levofloxacin”, “5).” for “4).”
as §4

MRSA = type: cell-based, Staphylococcus aureus; settings: for zone of inhibition at 100000 µg/mL: catheter impregnated with 100 mg/ml of each agent
Method: as §1, §2, §3
as §3, with “doxycycline,” for “levofloxacin,”, “doxycycline” for “levofloxacin”, “5).” for “4).”
as §4

[1] = test system: vancomycin-resistant Enterococcus (VRE); type: cell-based; settings: Enterococcus, catheter impregnated with 100 mg/ml of each agent
Method: as §1
(§5) To evaluate the antimicrobial activity of central venous catheters treated with lipoamide or its combination with levofloxacin, segments of 7 French triple lumen polyurethane central venous catheters were impregnated with levofloxacin or the combinations of lipoamide and levofloxacin using the same patented method described in Example 1 (U.S. Pat. No. 6,589,591) with 100 mg/ml (final solution volume) of each agent. […] Zones of inhibition were measured in mm after the incubation period (Table 4).
as §5, with “doxycycline,” for “levofloxacin,”, “doxycycline” for “levofloxacin”, “5).” for “4).”
To evaluate the antimicrobial activity of central venous catheters treated with dihydrolipoic acid, segments of 7 French triple lumen polyurethane central venous catheters were impregnated with dihydrolipoic acid using the same patented method described in Example 1 (U.S. Pat. No. 6,589,591) with 25 mg/ml (final solution volume) of the agent. […] Zones of inhibition were measured in mm after the incubation period (Table 6).

[2] = catheter impregnated with 50 mg/ml of each agent, 37° C., 24 hours
[3] = Staphylococcus epidermidis, catheter impregnated with 50 mg/ml of each agent, 37° C., 24 hours

Compound: C[C@H]1c2cccc(O)c2C(=O)C2=C(O)[C@]3(O)C(=O)C(C(N)=O)=C(O)[C@@H](N(C)C)[C@@H]3[C@@H](O)[C@@H]21 [Doxycycline, doxycycline]
- zone of inhibition at 100000 µg/mL (Pseudomonas aeruginosa): 11 mm
- zone of inhibition at 50000 µg/mL (Pseudomonas aeruginosa; [2]): 13 mm
- zone of inhibition at 100000 µg/mL (Klebsiella pneumoniae II): 7 mm
- zone of inhibition at 50000 µg/mL (Klebsiella pneumoniae II; Klebsiella pneumoniae, Klebsielle pneuminiae II, catheter impregnated with 50 mg/ml of each agent, 37° C., 24 hours): 13 mm
- zone of inhibition at 50000 µg/mL (Candida albicans; [2]): 13 mm
- zone of inhibition at 100000 µg/mL (Candida albicans): 5 mm
- zone of inhibition at 50000 µg/mL (Proteus mirabilis; [2]): 4 mm
- zone of inhibition at 100000 µg/mL (Proteus mirabilis): 0 mm
- zone of inhibition at 50000 µg/mL (Klebsiella pneumoniae I; [2]): 17 mm
- zone of inhibition at 100000 µg/mL (Klebsiella pneumoniae I): 19 mm
- zone of inhibition at 50000 µg/mL (Escherichia coli; [2]): 24 mm
- zone of inhibition at 100000 µg/mL (Escherichia coli): 22 mm
- zone of inhibition at 50000 µg/mL (MRSE; [3]): 35 mm
- zone of inhibition at 100000 µg/mL (MRSE; Staphylococcus epidermidis): 38 mm
- zone of inhibition at 50000 µg/mL (MSSE; [3]): 21 mm
- zone of inhibition at 100000 µg/mL (MSSE; Staphylococcus epidermidis): 20 mm
- zone of inhibition at 50000 µg/mL (MRSA; Staphylococcus aureus, catheter impregnated with 50 mg/ml of each agent, 37° C., 24 hours): 22 mm
- zone of inhibition at 100000 µg/mL (MRSA; Staphylococcus aureus): 19 mm
- zone of inhibition at 100000 µg/mL [1]: 30 mm

Compound: gentamicin
- Zones of inhibition (Pseudomonas aeruginosa; [2]): 5 mm
- Zones of inhibition (Klebsiella pneumoniae II; Klebsielle pneuminiae II, catheter impregnated with 50 mg/ml of each agent, 37° C., 24 hours): 0 mm
- Zones of inhibition (Candida albicans; [2]): 0 mm
- Zones of inhibition (Proteus mirabilis; [2]): 14 mm
- Zones of inhibition (Klebsiella pneumoniae I; [2]): 13 mm
- Zones of inhibition (Escherichia coli; [2]): 12 mm
- Zones of inhibition (MRSE; [2]): 22 mm
- Zones of inhibition (MSSE; [2]): 21 mm
- Zones of inhibition (MRSA; [2]): 15 mm

Compound: C[C@H]1COc2c(N3CCN(C)CC3)c(F)cc3c(=O)c(C(=O)O)cn1c23 [Levofloxacin, levofloxacin]
- zone of inhibition at 100000 µg/mL (Pseudomonas aeruginosa): 19 mm
- zone of inhibition at 100000 µg/mL (Klebsiella pneumoniae II): 18 mm
- zone of inhibition at 100000 µg/mL (Candida albicans): 0 mm
- zone of inhibition at 100000 µg/mL (Proteus mirabilis): 31 mm
- zone of inhibition at 100000 µg/mL (Klebsiella pneumoniae I): 24 mm
- zone of inhibition at 100000 µg/mL (Escherichia coli): 27 mm
- zone of inhibition at 100000 µg/mL (MRSE; Staphylococcus epidermidis): 31 mm
- zone of inhibition at 100000 µg/mL (MSSE; Staphylococcus epidermidis): 30 mm
- zone of inhibition at 100000 µg/mL (MRSA; Staphylococcus aureus): 21 mm
- zone of inhibition at 100000 µg/mL [1]: 7 mm
